From patent US7183324B2, “2,3,4-substituted cyclopentanones as therapeutic agents” (Allergan, Inc., priority 2004, dated 2007) come the findings set out here.

The target of series [1] is T1, hEP4/Gqs5 (Homo sapiens, UniProt P35408).
T1 construct: expressed in transfected cells; host or cells: HEK-293 (EBNA)
Put plainly: FLIPR calcium signal, hEP4/Gqs5. The series is classed as cell-based. To be noted: HEK-293 (EBNA) cells, read-out: FUNCTIONAL EC50 HEP4. Summed up:
(§1)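 HEK-293 (EBNA) cells stably expressing the recombinant human receptor (chimeric Gqs5 where indicated), Fluo-4 AM (2 μM) loaded 45 min, assayed in HBSS-HEPES pH 7.4 at 37 °C. Peak fluorescence (488 nm excitation) expressed relative to buffer and standard agonist controls; compounds tested at 10^−5 M or 10^−5–10^−11 M in duplicate, n≥3 plates.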

Series [2] deals with cynomolgus monkeys. The series is described as follows: Intraocular pressure in cynomolgus monkeys. Type of series: in vivo. To be noted: monkey, topical single dose, Conc. 0.1%. As to the method: (§2) • Intraocular Pressure (IOP) Intraocular pressure studies in dogs involved pneumatonometry performed in conscious, Beagle dogs of both sexes (10–15 kg). The animals remained conscious throughout the study and were gently restrained by hand. Drugs were administered topically to one eye as a 25 μL volume drop, the other eye received 25 μL vehicle (0.1% polysorbate 80:10 mM TRIS) as a control. Proparacaine (0.1%) was used for corneal anesthesia during tonometry. Intraocular pressure was determined just before drug administration and at 2, 4 and 6 hr thereafter on each day of the 5 day study. Drug was administered immediately after the first IOP reading. • An analogous procedure was carried out with cynomolgus monkeys with measurements at 2, 4, 6, and 24 hours after a single dose. • Pupil Diameter • Dog pupil diameter was measured using an optistick (a mm ruler which included half-circle references of standard widths (mm) for reference. Gently restraining the dog by hand, pupil diameter was determined by matching a half-circle to the pupil in normal room light. In dogs with very dark pupils a specialized penlight was used, but only very briefly to avoid pupil constriction. Pupil diameter was measured at the same time as IOP and hyperemia. • Ocular Surface Hyperemia • Ocular surface hyperemia was visually assessed and scored according to a system typically used clinically.

Series [3] addresses T2, HEP4 (Homo sapiens, UniProt P35408).
T2 construct: expressed in transfected cells; host or cells: HEK-293
The series is described as follows: Radioligand binding, EP4 receptor. To be noted: [3H]PGE2 5 nM, HEK-293 membranes. Summed up:
(§3)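 Membranes from HEK-293 cells stably expressing human EP receptors, in TME buffer pH 7.4. Competition against 5 nM [3H]PGE2, 60 min at 25 °C, duplicate, at least three experiments; GF/B filtration. Non-specific binding with 10^−5 M unlabeled PGE2.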

The target in series [4] is T3, HEP3D (Homo sapiens, UniProt P43115).
T3 sequence (P43115 1-374 isoform P43115-4): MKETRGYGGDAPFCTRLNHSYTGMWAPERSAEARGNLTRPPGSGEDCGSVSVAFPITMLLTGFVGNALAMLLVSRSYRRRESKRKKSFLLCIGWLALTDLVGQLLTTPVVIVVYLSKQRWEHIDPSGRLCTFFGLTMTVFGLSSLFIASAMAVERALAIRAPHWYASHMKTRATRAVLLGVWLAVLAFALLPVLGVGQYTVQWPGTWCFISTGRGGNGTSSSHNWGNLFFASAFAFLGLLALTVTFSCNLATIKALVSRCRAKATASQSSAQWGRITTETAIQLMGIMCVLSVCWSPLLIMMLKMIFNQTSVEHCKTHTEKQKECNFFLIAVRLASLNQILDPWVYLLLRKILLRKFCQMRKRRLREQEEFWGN
Put plainly: Radioligand binding, EP3 receptor. To be noted: [3H]PGE2 5 nM. Summed up: as §3

Series [5] deals with Beagle dogs. Put plainly: Ocular surface hyperemia in dogs. Type of series: in vivo. To be noted: dog, topical, Conc. 0.1%; score: trace 0.5, mild 1, moderate 2, severe 3. As to the method:
as §2
• Ocular surface hyperemia was evaluated at the same time points as intraocular pressure measurement. It should be noted that untreated dog eyes frequently have a pink/red tone. Thus, values of trace or even mild are not necessarily out of the normal range.

Series [6] concerns Beagle dogs. The series is described as follows: Intraocular pressure in dogs (pneumatonometry). The series is classed as in vivo. To be noted: dog, topical 25 μL drop, Conc. 0.1%, 5 day study. On the procedure:
as §2

Series [7] has as its target T4, hEP3A/Gqi5 (Homo sapiens, UniProt P43115).
T4 construct: expressed in transfected cells; host or cells: HEK-293 (EBNA)
T4 sequence (P43115 1-390): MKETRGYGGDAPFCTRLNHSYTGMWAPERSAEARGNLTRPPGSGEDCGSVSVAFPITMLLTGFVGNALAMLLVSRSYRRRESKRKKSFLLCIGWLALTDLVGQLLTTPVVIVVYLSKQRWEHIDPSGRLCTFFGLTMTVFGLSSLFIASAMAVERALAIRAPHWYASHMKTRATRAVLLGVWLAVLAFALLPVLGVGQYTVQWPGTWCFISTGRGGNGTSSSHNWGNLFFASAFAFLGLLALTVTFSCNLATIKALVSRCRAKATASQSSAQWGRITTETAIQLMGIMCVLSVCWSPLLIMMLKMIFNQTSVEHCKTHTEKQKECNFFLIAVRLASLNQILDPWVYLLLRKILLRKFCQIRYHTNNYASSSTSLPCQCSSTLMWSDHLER
Put plainly: FLIPR calcium signal, hEP3A/Gqi5. The series is classed as cell-based. To be noted: HEK-293 (EBNA) cells, read-out: FUNCTIONAL EC50 HEP3A. An outline of the steps:
as §1

Series [8] addresses T5, HEP2 (Homo sapiens, UniProt P43116).
T5 construct: expressed in transfected cells; host or cells: HEK-293
Put plainly: Radioligand binding, EP2 receptor. To be noted: [3H]PGE2 5 nM, HEK-293 membranes. As to the method:
HEK-293 cells stably expressing the human or feline FP receptor, or EP1, EP2, or EP4 receptors were washed with TME buffer, scraped from the bottom of the flasks, and homogenized for 30 sec using a Brinkman PT 10/35 polytron. TME buffer was added to achieve a final 40 ml volume in the centrifuge tubes (the composition of TME is 100 mM TRIS base, 20 mM MgCl2, […]; 10N HCl is added to achieve a pH of 7.4).
The cell homogenate was centrifuged at 19000 r.p.m. for 20 min at 4° C. using a Beckman Ti-60 rotor. The resultant pellet was resuspended in TME buffer to give a final 1 mg/ml protein concentration, as determined by Biorad assay. Radioligand binding competition assays vs. [^3H-]17-phenyl PGF2α (5 nM) were performed in a 100 μl volume for 60 min. Binding reactions were started by adding plasma membrane fraction. The reaction was terminated by the addition of 4 ml ice-cold TRIS-HCl buffer and rapid filtration through glass fiber GF/B filters using a Brandel cell harvester. The filters were washed 3 times with ice-cold buffer and oven dried for one hour. Non-specific binding was determined with 10 uM unlabeled 17-phenyl PGF2α.
[^3H-] PGE2 (5 nM; specific activity 180 Ci mmol) was used as the radioligand for EP receptors. Binding studies employing EP1, EP2, EP3, EP4 were performed in duplicate in at least three separate experiments. A 200 μl assay volume was used. Incubations were for 60 min at 25° C. and were terminated by the addition of 4 ml of ice-cold 50 mM TRIS-HCl, followed by rapid filtration through Whatman GF/B filters and three additional 4 ml washes in a cell harvester (Brandel). Non-specific binding determined with 10^−5M of unlabeled PGE2.

Series [9] concerns the target T6, hDP/Gqs5 (Homo sapiens, UniProt Q13258).
T6 construct: expressed in transfected cells; host or cells: HEK-293 (EBNA)
T6 sequence (Q13258 1-359): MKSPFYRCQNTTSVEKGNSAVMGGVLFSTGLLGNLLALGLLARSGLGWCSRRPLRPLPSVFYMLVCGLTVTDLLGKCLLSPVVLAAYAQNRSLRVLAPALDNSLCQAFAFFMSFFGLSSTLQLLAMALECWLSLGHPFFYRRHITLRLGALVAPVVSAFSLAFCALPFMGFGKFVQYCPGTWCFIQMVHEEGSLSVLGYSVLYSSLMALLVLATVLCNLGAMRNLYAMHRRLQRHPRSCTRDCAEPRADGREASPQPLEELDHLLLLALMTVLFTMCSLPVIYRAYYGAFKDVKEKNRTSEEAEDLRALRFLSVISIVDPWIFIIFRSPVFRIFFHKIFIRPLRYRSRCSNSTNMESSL
Put plainly: FLIPR calcium signal, hDP/Gqs5. Type of series: cell-based. To be noted: HEK-293 (EBNA) cells, read-out: FUNCTIONAL EC50 HDP. As to the method: (§4) HEK-293 (EBNA) cells, stably expressing one type or subtype of recombinant human prostaglandin receptors (prostaglandin receptors expressed: hDP/Gqs5; hEP1; hEP2/Gqs5; hEP3A/Gqi5; hEP4/Gqs5; hFP; hIP; hTP), were cultured in 100 mm culture dishes in high-glucose DMEM medium containing 10% fetal bovine serum, 2 mM 1-glutamine, 250 μg/ml geneticin (G418) and 200 μg/ml hygromycin B as selection markers, and 100 units/ml penicillin G, 100 μg/ml streptomycin and 0.25 μg/ml amphotericin B. • (b) Calcium Signal Studies on the FLIPR™
(§5) Cells were seeded at a density of 5×10^4 cells per well in Biocoat® Poly-D-lysine-coated black-wall, clear-bottom 96-well plates (Becton-Dickinson) and allowed to attach overnight in an incubator at 37° C. Cells were then washed two times with HBSS-HEPES buffer (Hanks Balanced Salt Solution without bicarbonate and phenol red, 20 mM HEPES, pH 7.4) using a Denley Cellwash plate washer (Labsystems). […]
(§6) Cells were excited with an Argon laser at 488 nm, and emission was measured through a 510–570 nm bandwidth emission filter (FLIPR™, Molecular Devices, Sunnyvale, Calif.). […] The peak increase in fluorescence intensity was recorded for each well. […] The peak fluorescence change in each drug-containing well was then expressed relative to the controls. […]

The target of series [10] is T7, hEP1 (Homo sapiens, UniProt P34995).
T7 construct: expressed in transfected cells; host or cells: HEK-293 (EBNA)
T7 sequence (P34995 1-402): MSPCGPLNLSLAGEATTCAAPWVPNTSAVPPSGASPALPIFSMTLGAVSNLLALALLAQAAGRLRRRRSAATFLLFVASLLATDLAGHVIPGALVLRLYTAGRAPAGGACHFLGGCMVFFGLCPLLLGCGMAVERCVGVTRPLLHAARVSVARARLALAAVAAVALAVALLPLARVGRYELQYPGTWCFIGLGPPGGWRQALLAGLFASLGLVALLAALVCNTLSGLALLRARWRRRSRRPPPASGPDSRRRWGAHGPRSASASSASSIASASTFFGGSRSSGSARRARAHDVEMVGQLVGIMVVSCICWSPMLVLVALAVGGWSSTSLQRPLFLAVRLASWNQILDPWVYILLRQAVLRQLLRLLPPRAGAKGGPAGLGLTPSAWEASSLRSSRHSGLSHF
Put plainly: FLIPR calcium signal, hEP1. The series is classed as cell-based. To be noted: HEK-293 (EBNA) cells, read-out: FUNCTIONAL EC50 HEP1. On the procedure: as §4, §5, §6

Series [11] deals with T8, hEP2/Gqs5 (Homo sapiens, UniProt P43116).
T8 construct: expressed in transfected cells; host or cells: HEK-293 (EBNA)
T8 sequence (P43116 whole entry): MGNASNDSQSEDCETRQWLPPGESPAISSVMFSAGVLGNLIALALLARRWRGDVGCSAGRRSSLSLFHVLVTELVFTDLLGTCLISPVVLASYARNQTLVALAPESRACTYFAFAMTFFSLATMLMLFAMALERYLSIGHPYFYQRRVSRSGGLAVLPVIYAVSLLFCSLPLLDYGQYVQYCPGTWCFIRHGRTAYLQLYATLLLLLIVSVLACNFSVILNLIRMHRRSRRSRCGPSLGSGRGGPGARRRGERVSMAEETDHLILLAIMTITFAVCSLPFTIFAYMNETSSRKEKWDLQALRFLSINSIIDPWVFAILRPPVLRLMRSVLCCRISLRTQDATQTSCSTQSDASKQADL
The series is described as follows: FLIPR calcium signal, hEP2/Gqs5. Type of series: cell-based. To be noted: HEK-293 (EBNA) cells, read-out: FUNCTIONAL EC50 HEP2. As to the method:
as §4
Cells were seeded at a density of 5×10^4 cells per well in Biocoat® Poly-D-lysine-coated black-wall, clear-bottom 96-well plates (Becton-Dickinson) and allowed to attach overnight in an incubator at 37° C. Cells were then washed two times with HBSS-HEPES buffer (Hanks Balanced Salt Solution without bicarbonate and phenol red, 20 mM HEPES, pH 7.4) using a Denley Cellwash plate washer (Labsystems). After 45 minutes of dye-loading in the dark, using the calcium-sensitive dye Fluo-4 AM at a final concentration of 2 μM, plates were washed four times with HBSS-HEPES buffer to remove excess dye leaving 100 μl in each well. Plates were re-equilibrated to 37° C. for a few minutes.
Cells were excited with an Argon laser at 488 nm, and emission was measured through a 510–570 nm bandwidth emission filter (FLIPR™, Molecular Devices, Sunnyvale, Calif.). Drug solution was added in a 50 μl volume to each well to give the desired final concentration. The peak increase in fluorescence intensity was recorded for each well. On each plate, four wells each served as negative (HBSS-HEPES buffer) and positive controls (standard agonists: BW245C (hDP); PGE2 (hEP1; hEP2/Gqs5; hEP3A/Gqi5; hEP4/Gqs5); PGF2α (hFP); carbacyclin (hIP); U46619 (hTP), depending on receptor). The peak fluorescence change in each drug-containing well was then expressed relative to the controls.
Compounds were tested in a high-throughput (HTS) or concentration-response (CoRe) format. […]

T2 sequence (P35408 whole entry): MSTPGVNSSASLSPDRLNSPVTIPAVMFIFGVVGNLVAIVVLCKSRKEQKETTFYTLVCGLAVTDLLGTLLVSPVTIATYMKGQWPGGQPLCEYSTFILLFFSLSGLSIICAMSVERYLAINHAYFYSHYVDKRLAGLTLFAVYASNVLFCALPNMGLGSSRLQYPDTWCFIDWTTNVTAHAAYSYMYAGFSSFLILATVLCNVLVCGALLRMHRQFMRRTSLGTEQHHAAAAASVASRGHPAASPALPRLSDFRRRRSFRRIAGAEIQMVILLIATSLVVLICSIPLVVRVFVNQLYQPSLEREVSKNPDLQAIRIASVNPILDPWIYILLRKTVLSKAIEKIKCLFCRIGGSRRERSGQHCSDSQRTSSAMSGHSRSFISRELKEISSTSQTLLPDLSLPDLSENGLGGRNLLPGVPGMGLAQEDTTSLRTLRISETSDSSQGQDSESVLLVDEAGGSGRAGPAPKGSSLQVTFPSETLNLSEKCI
T1 sequence (P35408 whole entry): as above
T5 sequence (P43116 whole entry): as the sequence (P43116 whole entry) above

The term EC50 denotes the midpoint of the concentration-response curve. One may read the IC50 as the point on the concentration scale where inhibition reaches its midpoint. A lower IC50 goes with inhibition by little substance. For `O=C(O)CSCCCS[C@H]1C(=O)C[C@@H](CO)[C@@H]1/C=C/C(O)Cc1ccccc1` (single isomer, unassigned) [Compound 151], in series [1], the half-maximal effective concentration (EC50) came out at 59 nM. The “Max. ΔIOP” value in series [2] is recorded as −2.9 mm Hg; in [6] it was −4.0 mm Hg. The IC50 was 53 nM in series [3] and more than 10000 nM in [4]. This compound also gave a Max hyperemia in series [5] of 1.6.
For the compound `CCCCC[C@H](O)/C=C/[C@H]1CCC(=O)[C@@H]1SCCCSCC(=O)O` [{3-[(1R,2R)-2-((E)-(S)-3-Hydroxy-oct-1-enyl)-5-oxo-cyclopentylsulfanyl]-propylsulfanyl}-acetic acid], the EC50 in series [7] is 16 nM; in series [1], 1.6 nM; in series [9], more than 10000 nM; in [10], more than 10000 nM; in series [11] it was 1220 nM. For the same compound, the IC50 was 2200 nM in series [8] and 20 nM in [3].
